Test results from US20090042814A1, “Treatment and Diagnosis of Obligate Intracellular Pathogens” (priority 2005, published 2009).

Columns and labels:
[1] = test system: Chlamydia pneumoniae; test: Antibiotic susceptibility test in HL cells (MIC, no inclusions detected); format: cell-based; settings: 72 h
Method: (§1) For Chlamydia trachomatis isolation McCoy cells were used and for Chlamydia pneumoniae—HL cells.
(§2) Cells of each cell line were seeded into 24-well cell culture plates (approximately 2×10^5 cells per well) with cover-slips and incubated at 37° C. for 24 h to achieve monolayer confluence.
(§3) 1 ml of serum was centrifuged at 14,000×g for 1 h at 4° C. to sediment bacterial cells. Supernatant was discarded and pellet was suspended in 0.5 ml of GM (growth medium: RPMI, 5% [vol/vol] fetal calf serum, 2.0 mM L-glutamine, 8.8% [vol/vol] glucose, 4.0 μg of gentamicin per ml and 5.0 of amfotherycin B/ml). The cell monolayers were inoculated with the suspensions and centrifuged at 2,500×g for an hour at 20 °C. The infected cells were incubated for 2 h at 37° C.; after that, the medium was removed and replaced by GM with cycloheximide (1.0 μg/ml). The cells were incubated at 37° C. in 4% CO2 for 72 h.
(§4) The cells on the cover-slips were fixed with acetone and stained with a fluorescein isothiocyanate (FITC)-labeled Chlamydia genus-specific (anti-LPS) and Chlamydia trachomatis-specific (anti-MOMP) antibodies. Chlamydia inclusions were detected by fluorescent microscopy.
(§5) McCoy and HL cells were seeded and inoculated with serum samples as described above but after centrifugation at 2,500×g for an hour and incubation for 2 h at 37° C. the infected cells were overlaid with the growth medium containing serial twofold dilutions of the antibiotic (Azithromycin, Pliva) at concentration range from 0.05 to 0.8 μg/ml and incubated at 37° C. in 4% CO2 for 72 h. Chlamydia trachomatis L-2 and Chlamydia pneumoniae Kajaani 6 strains were used as reference strains. The MIC was defined as the lowest concentration at which no inclusions were detected.

[2] = test system: Chlamydia trachomatis; test: Antibiotic susceptibility test in McCoy cells (MIC, no inclusions detected); format: cell-based; settings: 72 h
Method: as §1, §2, §3, §4, §5

## CC[C@H]1OC(=O)[C@H](C)[C@@H](O[C@H]2C[C@@](C)(OC)[C@@H](O)[C@H](C)O2)[C@H](C)[C@@H](O[C@@H]2O[C@H](C)C[C@H](N(C)C)[C@H]2O)[C@](C)(O)C[C@@H](C)CN(C)[C@H](C)[C@@H](O)[C@]1(C)O [Azithromycin]
[1]; Chlamydia pneumoniae isolated from serum of Patient C
  Range of anti-microbial concentration: >0.4 µg/mL
[1]; Chlamydia pneumoniae isolated from serum of Patient D
  Range of anti-microbial concentration: >0.4 µg/mL
[1]; Chlamydia pneumoniae reference strain Kajaani 6
  Range of anti-microbial concentration: >0.05 µg/mL
[2]; Chlamydia trachomatis isolated from serum of Patient A
  Range of anti-microbial concentration: >0.4 µg/mL
[2]; Chlamydia trachomatis isolated from serum of Patient B
  Range of anti-microbial concentration: >0.4 µg/mL
[2]; Chlamydia trachomatis reference strain L-2, tested range 0.05 to 0.8 μg/ml
  Range of anti-microbial concentration: >0.1 µg/mL
